One assay deals with FAT1 KO human SCC cells. Briefly: Expression of YAP1, ZEB1, E-Cadherin and SOX2 (immunostaining) in FAT1 KO cells treated with CAMK2 or SRC inhibitors. It counts as cell-based. How it is done: After 96 h the cells were collected for WB as described above or for FACS analysis. For immunostaining present inventors followed the same treatment but the cells were plated previously on coverslips covered with gelatin.
After 72 h the cells were collected for WB or immunostaining as described above.

For the next assay, the system named is surface CD44. Briefly: FACS analysis of surface CD44 in FAT1 KO cells treated with inhibitor. It counts as cell-based, human. The following applies: CAMK2 inhibitor (KN93) 10 μM, versus DMSO. Here is the method:
CD44 expression in FAT1 WT and FAT1 KO human SCC cells was performed after trypsinization of cells and incubation with APC conjugated anti-CD44 (Clone IM7, BioLegend Cat #103011, dilution 1:50) antibody. Living tumor cells were selected by forward and side scatter, doublets discriminating and DAPI dye exclusion.
For CAMK2 inhibition present inventors used CAMK2 inhibitor KN93 (Selleckchem Cat #57423, dissolved in DMSO) at 10 μM and present inventors incubated cells during 96 h refreshing the medium once after 48 h. After 96 h the cells were collected for WB as described above or for FACS analysis. For immunostaining present inventors followed the same treatment but the cells were plated previously on coverslips covered with gelatin.
A general note: A flow cytometer gives signals particle by particle.

Another assay relates to SRC/YES phosphorylation. Put plainly: Western blot of phosphorylated SRC/YES in FAT1 KO cells treated with inhibitor. Format: cell-based, human. The following applies: KN93 10 μM, 96 h, versus DMSO. Here is the method:
A388 cells (human skin SCC) cells were maintained in DMEM medium supplemented with 10% FBS, 100 U/ml Pen/Strep and 2 mM L-glutamine. 293T cells were maintained in DMEM (Gibco) supplemented with 10% FBS, 2 mM Glutamine, 100 U/ml Pen/Strep solution, MEM Non-Essential Amino Acids Solution and Pyruvate. All cell lines were acquired from ATCC and cultured at 37 degrees with 20% 02 and 5% CO2.
(§1) The cells were lysed in cell lysis buffer (Cell Signaling, catalog #9803) with phosphatase inhibitor cocktail (Cell Signaling, catalog 5870) and 1 mM PMSF (Sigma, Cat #P7626) for 5 minutes on ice, sonicated 5 times 10 seconds and then centrifuged for 10 min at 14.000 rpm at 4° C. A range of 5 to 30 micrograms of cell lysate was loaded in NuPage 10% Bis-Tris gel (Invitrogen, Cat #NP0315BOX) and separated by electrophoresis. Proteins were transferred on nitrocellulose membranes (Thermo Scientific, Cat #88018). […]
A general note: A western blot detects proteins with antibodies after separation by electrophoresis.

The subject of the next assay is H3K27me3. Briefly: Western blot of global H3K27me3 in cells treated with inhibitor. It counts as cell-based, human. As to conditions: versus DMSO. How it is done: The cells were lysed in cell lysis buffer (Cell Signaling, catalog #9803) with phosphatase inhibitor cocktail (Cell Signaling, catalog 5870) and 1 mM PMSF (Sigma, Cat #P7626) for 5 minutes on ice, sonicated 5 times 10 seconds and then centrifuged for 10 min at 14.000 rpm at 4° C. A range of 5 to 30 micrograms of cell lysate was loaded in NuPage 10% Bis-Tris gel (Invitrogen, Cat #NP0315BOX) and separated by electrophoresis. Proteins were transferred on nitrocellulose membranes (Thermo Scientific, Cat #88018). The membranes were incubated overnight with anti-phospho-CAMK2 (Rabbit, 1/133, Cell Signaling, clone D21E4, cat #12716) or anti-phospho-SCR Tyr416 (Rabbit, 1:3000, Cell Signaling, clone D49G4, Cat #6943) or anti-H3K27Me3 Lys27 (Rabbit, 1:3000, Millipore, Cat #17-622) or anti-phospho-MEK1/MEK2 Ser218, SER222, Ser226 (Rabbit, 1:1000, Invitrogen, Cat #44-454G) or anti-phospho-EGFR Y1197 (Rat, 1:500, R&D, MAB8058), anti-CAMK2 (pan) (Rabbit, 1/125, Cell Signaling, clone D11A10, cat #4436) or anti-SRC (Rabbit, 1:1000, Cell Signaling, clone32G6, Cat #2123) or anti-H3 (Rabbit, 1:6000, Abcam, Cat #ab1791) or anti-MEK1/MEK2 (Rabbit, 1:1000, Invitrogen, Cat #PA5-31917) or anti-EGFR (Rabbit, 1:1000, Cell Signaling, clone D38B1, Cat #4267), anti-YES (Rabbit, 1:1000, Cell Signaling, clone D9P3E, Cat #65890) and anti-β-actin (1:2000, Abcam, Cat #ab8227). […]

In assay [1] the test system is FAT1 WT and FAT1 KO human SCC cells (A388). Briefly: Drug sensitivity assay (cell viability by FACS), FAT1 WT versus FAT1 KO cells. It counts as cell-based. The following applies: cell viability at 48 h, serial dilution of inhibitor, 5% FBS medium. How it is done: For the drug sensitivity assay, cells have been seeded at a density of 4000 cells/well in a 96 well plate. […] 48 hours after the start of treatment, cells have been harvested by trypsinization, and quantified by counting the number of living cells by FACS. Living cells were selected by forward and side scatter and by Hoechst dye exclusion. Each data point is the result of at least three independent replicates; each of the replicates is evaluated using a technical duplicate. Drug response curves and IC50 values have been calculated using the Prism8 software.

The next assay has as its system SOX2 expression. Put plainly: SOX2 mRNA (RT-qPCR) and protein (Western blot) in FAT1 WT cells treated with EZH2 inhibitor. Format: cell-based, human. As to conditions: GSK343 500 nM, 7 days, versus DMSO. Here is the method:
as §1
RNA extraction from FACS isolated cells was performed using RNeasy micro kit (QIAGEN) according to the manufacturer's recommendations. For real-time PCR, after nanodrop quantification, the first strand cDNA was synthesized using Superscript II (Invitrogen) and random hexamers (Roche) in […] final volume. Control of genomic contaminations was measured for each sample by performing the same procedure with or without reverse transcriptase. Quantitative PCR assays were performed using 1 ng of cDNA as template, SYBRGreen mix (Applied Bioscience) on Light Cycler 96 (Roche) real-time PCR system. […]

Setting [2] is: FAT1 KO cells treated with inhibitor (data not shown).

On to `COc1ccc(S(=O)(=O)N(CCO)c2ccccc2CN(C)C/C=C/c2ccc(Cl)cc2)cc1` [KN93], for which the SOX2 expression entry in the assay on FAT1 KO human SCC cells (FAT1 KO TCs treated with inhibitor (data not shown)) was “decrease”. In addition, in the assay with FAT1 KO human SCC cells (setting [2]), the E-Cadherin expression entry was “increase”, the ZEB1 result was “strong decrease”, the colony morphology result was “more compact epithelial colonies” and the “nuclear YAP1” value is recorded as “strong decrease”. Also, in the assay with surface CD44, the “levels of surface CD44” value is reported as “decreased significantly”. Also, in the assay with SRC/YES phosphorylation, the SRC/YES phosphorylation levels result is “greatly decreased”. Also, the “global levels of H3K27me3” value in the assay with H3K27me3 (FAT1 KO cells treated with CAMK2 inhibitor) is listed as “increased”. Also, the “sensitivity of FAT1 KO cells as compared to FAT1 WT cells” value in assay [1] was “significantly more sensitive”.
For the molecule `CCCc1cc(C)[nH]c(=O)c1CNC(=O)c1cc(-c2ccnc(N3CCN(C)CC3)c2)cc2c1cnn2C(C)C` [GSK343], the H3K27me3 result with H3K27me3 (FAT1 WT cells, GSK343 500 nM, 7 days) is on record as “decreased”. For the same molecule, in the assay on SOX2 expression, the “SOX2 mRNA expression” value is reported as “increased” and the SOX2 protein expression entry is on record as “increased”.
